Common to all, as to assay type: in vivo
Series [1] relates to maize (Marista 11f). Put plainly: Post-emergent test on maize (safener action). Particulars: post-emergent (GS 11), evaluated after 28 days. The procedure:
The test plants are sown in containers under glasshouse conditions. A standard earth is used as the culture substrate. In a maize growth stage of one leaf (GS 11), the herbicides are applied both by themselves and in a mixture with safeners to the soil and leaf surface. The application is carried out with an aqueous suspension of the test substances, prepared from a 25% wettable powder (Example F3,b) or a suspension concentrate (Example F8), to achieve a field equivalent of 200 l/ha. The tests are evaluated after 28 days (100%=plants completely dead; 0%=no phytotoxic action on the plants).

The test system of series [2] is wheat. The series can be described thus: Pre-emergent test on wheat (safener action). The conditions noted are these: after 14 days, average value of two repetitions. On the procedure: The test plants are sown in 48 well plates in a growth chamber. A sterilized standard earth is used as the culture substrate. In a pre-emergent stage, the herbicides are applied both by themselves and in a mixture with safeners to the soil surface. The application is carried out with an aqueous suspension of the test substances, prepared from a 25% wettable powder (Example F3,b), to achieve a field equivalent of 375 l/ha. The tests are evaluated after 14 days (100%=plants completely dead; 0%=no phytotoxic action on the plants).

Series [3] has as its system maize. Put plainly: Pre-emergent test on maize (safener action). The conditions noted are these: evaluated after 14 days. On the procedure: The test plants are sown in seed troughs under greenhouse conditions. A standard earth is used as the culture substrate. In a pre-emergent stage, the herbicides are applied both by themselves and in a mixture with safeners to the soil surface. […] The tests are evaluated after 14 days (100%=plants completely dead; 0%=no phytotoxic action on the plants).

Consider three molecules from patent US8404618B2, “Herbicidal composition” (priority 2004, dated 2013).

`Cn1nc(C(F)(F)F)c(CS(=O)(=O)C2=NOC(C)(C)C2)c1OC(F)F` [Comp. 1.27, 3-(5-difluoromethoxy-1-methyl-3-trifluoromethyl-1H-pyrazol-4-ylmethylsulfonyl)-5,5-dimethyl-4,5-dihydroisoxazole]: the “phytotoxic action on the plants (100%=plants completely dead; 0%=no phytotoxic action)” value in series [1] (herbicide alone 37.5 g/ha) came to 0%; in series [1] (herbicide alone 75 g/ha), 10%; in series [1] (herbicide alone 150 g/ha) it was 40%; in series [2] (herbicide alone 100 g/ha), 25%; in series [2] (herbicide alone 200 g/ha), 50%.
`Cn1nc(C(F)(F)F)c(C[S+]([O-])C2=NOC(C)(C)C2)c1OC(F)F` (stereo not drawn) [Comp. 1.57]: in series [2] (herbicide alone 100 g/ha), the “phytotoxic action on the plants (100%=plants completely dead; 0%=no phytotoxic action)” value came out at 90%.
Consider `CC1(C)CC(S(=O)(=O)Cc2c(F)cccc2F)=NO1` [Comp. 1.41], for which the “phytotoxic action on the plants (100%=plants completely dead; 0%=no phytotoxic action)” value turned out to be 30% in series [3] (herbicide alone 250 g/ha), 70% in series [3] (herbicide alone 500 g/ha) and 80% in series [3] (herbicide alone 1000 g/ha).
